Data from paper PMC9181188 (International Journal of Molecular Sciences, 2022).
Converted amounts (≈) assume the structure as drawn. Read-outs that look alike come from different tables or passages of the source.

Assays:
[1] = molecular target: S. aureus DNA gyrase (Staphylococcus aureus, UniProt P0A0K8+P20831); experiment: biochemical
[2] = molecular target: T1, S. aureus topoisomerase IV (Staphylococcus aureus, UniProt P0C1S7+P0C1U9); experiment: S. aureus topoisomerase IV decatenation assay; format: biochemical
T1 construct: purchased Inspiralis
Protocol: The assay was performed using S. aureus topoisomerase IV […] kit (Inspiralis). Kinetoplast DNA (kDNA) was the substrate for topoisomerase IV.

[3] = system: S. epidermidis KR 4358/2 840/19; experiment: MIC, clinical S. epidermidis strain; format: cell-based; details: Staphylococcus epidermidis, read-out: MIC KR 4358/2 840/19
[4] = system: S. aureus ATCC 29213; experiment: MIC, twofold microdilution, standard strain; format: cell-based; details: Staphylococcus aureus, ATCC29213; 18 h of treatment; read-out: MIC S. aureus ATCC 29213
[5] = system: PC3 cells; experiment: MTT assay, PC3; format: cell-based, human; details: for SI PC3: SI = IC50 for normal cell line (HaCaT)/IC50 cancer cell line; for IC50: Homo sapiens, PC-3, 72 h, human metastatic prostate cancer, 72 h, MTT, mean ± SD
[6] = system: SW480 cells; experiment: MTT assay, SW480; format: cell-based, human; details: for IC50: human primary colon cancer, 72 h, MTT, mean ± SD; for SI SW480: SI = IC50 for normal cell line (HaCaT)/IC50 cancer cell line
[7] = system: S. aureus ATCC 25923; experiment: MIC, twofold microdilution, standard strain; format: cell-based; details: Staphylococcus aureus, ATCC25923; 18 h of treatment; read-out: MIC S. aureus ATCC 25923
[8] = system: S. epidermidis ATCC 12228; experiment: MIC, twofold microdilution, standard strain; format: cell-based; details: Staphylococcus epidermidis, read-out: MIC S. epidermidis ATCC 12228
[9] = system: M. tuberculosis Spec. 192 (Sensitive to Tuberculostatics); experiment: MABA (microplate Alamar blue assay) MIC; format: cell-based; details: Mycobacterium tuberculosis, 336 h, read-out: MIC M. tuberculosis Spec. 192 (Sensitive to Tuberculostatics)
[10] = system: HaCaT cells; experiment: MTT assay, HaCaT normal cells; format: cell-based; details: human immortal keratinocyte cell line, 72 h, mean ± SD
[11] = system: M. tuberculosis H37Rv; experiment: MABA (microplate Alamar blue assay) MIC; format: cell-based; details: Mycobacterium tuberculosis, 336 h, read-out: MIC M. tuberculosis H37Rv
[12] = system: P. aeruginosa ATCC 27853; experiment: MIC, twofold microdilution, standard strain; format: cell-based; details: Pseudomonas aeruginosa, read-out: MIC P. aeruginosa ATCC 27853
[13] = system: E. coli ATCC 25922; experiment: MIC, twofold microdilution, standard strain; format: cell-based, Escherichia coli; details: Escherichia coli, ATCC25922; 18 h of treatment; read-out: MIC E. coli ATCC 25922
[14] = system: S. epidermidis T 5399 848/19; experiment: MIC, clinical S. epidermidis strain; format: cell-based; details: Staphylococcus epidermidis, T5399848/19, quinolone-susceptible, 18 h of treatment
[15] = system: standard staphylococci (S. aureus, S. epidermidis); experiment: MIC, standard Gram-positive strains as a group; format: cell-based; details: Staphylococcus aureus; range over standard Gram-positive strains; read-out: MIC against standard staphylococci
[16] = system: SW620 cells; experiment: MTT assay, SW620; format: cell-based, human; details: for IC50: Homo sapiens, SW-620, 72 h, human metastatic colon cancer, 72 h, MTT, mean ± SD; for SI SW620: SI = IC50 for normal cell line (HaCaT)/IC50 cancer cell line
[17] = system: S. epidermidis KR 4243 829/19; experiment: MIC, clinical S. epidermidis strain; format: cell-based; details: Staphylococcus epidermidis, KR4243829/19, quinolone-susceptible, 18 h of treatment
[18] = system: S. aureus NCTC 4163; experiment: MIC, twofold microdilution, standard strain; format: cell-based; details: Staphylococcus aureus, NCTC4163; 18 h of treatment; read-out: MIC S. aureus NCTC 4163
[19] = system: S. epidermidis T 5253 845/19; experiment: MIC, clinical S. epidermidis strain; format: cell-based; details: Staphylococcus epidermidis, T5253845/19, quinolone-resistant, 18 h of treatment
[20] = system: S. aureus ATCC 6538; experiment: MIC, twofold microdilution, standard strain; format: cell-based; details: Staphylococcus aureus, ATCC6538; 18 h of treatment; read-out: MIC S. aureus ATCC 6538
[21] = system: S. epidermidis T 5501 851/19; experiment: MIC, clinical S. epidermidis strain; format: cell-based; details: Staphylococcus epidermidis, T5501851/19, read-out: MIC T 5501 851/19, quinolone-susceptible, 18 h of treatment
[22] = system: S. epidermidis KR 4047 825/19; experiment: MIC, clinical S. epidermidis strain; format: cell-based; details: Staphylococcus epidermidis, KR4047825/19, quinolone-resistant, 18 h of treatment
[23] = system: S. epidermidis ATCC 35984; experiment: MIC, twofold microdilution, standard strain; format: cell-based; details: Staphylococcus epidermidis, ATCC35984; 18 h of treatment; read-out: MIC S. epidermidis ATCC 35984
[24] = system: S. epidermidis KR 4313 834/19; experiment: MIC, clinical S. epidermidis strain; format: cell-based; details: Staphylococcus epidermidis, KR4313834/19, quinolone-susceptible, 18 h of treatment
[25] = system: SW480, SW620, and PC3 cancer cell lines; experiment: MTT assay, cancer cell lines as a group; format: cell-based, human; details: Homo sapiens, 72 h, all three cancer cell lines (SW480, SW620, PC3), read-out: IC50 against all tested cancer cell lines
[26] = KR4358/2840/19, clinical S. epidermidis, quinolone-susceptible, 18 h of treatment

Structure (SMILES)	MIC [4] [µg/mL]	SI PC3 [5]	IC50 ([6]; Homo sapiens, SW480, 72 h) [µM]	SI SW480 [6]	MIC [7] [µg/mL]	MIC [9] [µg/mL]	IC50 [10] [µM]	MIC [13] [µg/mL]	MIC [14] [µg/mL]	MIC [15] [µg/mL]	IC50 [16] [µM]	SI SW620 [16]	MIC [17] [µg/mL]	MIC [18] [µg/mL]	MIC [19] [µg/mL]	MIC [20] [µg/mL]	MIC [21] [µg/mL]	MIC [22] [µg/mL]	MIC [23] [µg/mL]	MIC [24] [µg/mL]	other results
CC=CC(=O)N1CCN(c2cc3c(cc2F)c(=O)c(C(=O)O)cn3C2CC2)CC1 [Compound 1]	–	–	–	–	–	–	–	–	–	–	–	–	–	–	–	–	–	–	–	–	IC50 [1]: > 160 µM; IC50 [2]: > 160 µM
CC=CC=CC(=O)N1CCN(c2cc3c(cc2F)c(=O)c(C(=O)O)cn3C2CC2)CC1 [Compound 2]	–	–	–	–	–	–	–	–	–	–	–	–	–	–	–	–	–	–	–	–	IC50 [1]: 79.9 µM; IC50 [2]: 75.2 µM
CC(C)=CCCC(C)=CC(=O)N1CCN(c2cc3c(cc2F)c(=O)c(C(=O)O)cn3C2CC2)CC1 [Compound 3]	–	–	–	–	–	–	–	–	–	–	–	–	–	–	–	–	–	–	–	–	IC50 [1]: 107 µM; IC50 [2]: > 133 µM
CCCCCCCC/C=C\CCCCCCCC(=O)N1CCCC2CN(c3c(F)cc4c(=O)c(C(=O)O)cn(C5CC5)c4c3OC)CC21 (centres unmarked) [Compound 4m, 1-Cyclopropyl-6-fluoro-8-methoxy-7-{1-(Z)-octadec-9-enoyl-octahydro-pyrrolo[3,4-b]pyridin-6-yl}-4-oxo-1,4-dihydro-quinoline-3-carboxylic acid]	512 (≈ 769 µM)	71.0	4.6 ± 1.4	20.1	256 (≈ 384 µM)	> 512	92.3 ± 6.1	512 (≈ 769 µM)	> 512	> 32	3.4 ± 0.7	27.1	> 512	128 (≈ 192 µM)	> 512	128 (≈ 192 µM)	> 512	> 512	256 (≈ 384 µM)	> 512	MIC ([3]; KR4358/2840/19, 18 h): > 512 µg/mL; MIC ([8]; ATCC12228, 18 h): > 512 µg/mL; MIC [11]: > 512 µg/mL; MIC ([12]; ATCC27853, 18 h of treatment): 128 µg/mL (≈ 192 µM); IC50 [25]: < 5 µM
CCCCCCCC/C=C/CCCCCCCC(=O)N1CCCC2CN(c3c(F)cc4c(=O)c(C(=O)O)cn(C5CC5)c4c3OC)CC21 (centres unmarked) [Compound 5m, 1-Cyclopropyl-6-fluoro-8-methoxy-7-{1-(E)-octadec-9-enoyl-octahydro-pyrrolo[3,4-b]pyridin-6-yl}-4-oxo-1,4-dihydro-quinoline-3-carboxylic acid]	> 512	17.3	6.7 ± 0.6	13.7	> 512	256 (≈ 384 µM)	91.6 ± 4.6	> 512	512 (≈ 769 µM)	> 32	8.7 ± 1.2	10.5	> 512	> 512	512 (≈ 769 µM)	> 512	512 (≈ 769 µM)	> 512	> 512	256 (≈ 384 µM)	MIC [3, 26]: 512 µg/mL (≈ 769 µM); IC50 [5]: 5.3 ± 1.3 µM; MIC ([8]; ATCC12228, 18 h of treatment): > 512 µg/mL; MIC ([11]; 2 weeks of treatment): 512 µg/mL (≈ 769 µM); MIC ([12]; ATCC27853, 18 h of treatment): 128 µg/mL (≈ 192 µM); IC50 [25]: 5 to 10 µM
CCCCCCCC/C=C\CCCCCCCCCCCC(=O)N1CCCC2CN(c3c(F)cc4c(=O)c(C(=O)O)cn(C5CC5)c4c3OC)CC21 (centres unmarked) [Compound 7m, 1-Cyclopropyl-7-{1-(Z)-docos-13-enoyl-octahydro-pyrrolo[3,4-b]pyridin-6-yl}-6-fluoro-8-methoxy-4-oxo-1,4-dihydro-quinoline-3-carboxylic acid]	512 (≈ 709 µM)	2.3	48.6 ± 2.6	1.8	512 (≈ 709 µM)	> 512	85.2 ± 3.3	256 (≈ 355 µM)	512 (≈ 709 µM)	> 32	51.8 ± 4.3	1.6	256 (≈ 355 µM)	256 (≈ 355 µM)	> 512	128 (≈ 177 µM)	256 (≈ 355 µM)	512 (≈ 709 µM)	256 (≈ 355 µM)	256 (≈ 355 µM)	MIC [3, 26]: 256 µg/mL (≈ 355 µM); IC50 [5]: 36.5 ± 2.3 µM; MIC ([8]; ATCC12228, 18 h of treatment): 512 µg/mL (≈ 709 µM); MIC [11]: > 512 µg/mL; MIC ([12]; ATCC27853, 18 h): > 512 µg/mL
CCCCCCCCCCCCCCCCCC(=O)N1CCCC2CN(c3c(F)cc4c(=O)c(C(=O)O)cn(C5CC5)c4c3OC)CC21 (centres unmarked) [Compound 16m, 1-Cyclopropyl-6-fluoro-8-methoxy-7-(1-octadecanoyl-octahydro-pyrrolo[3,4-b]pyridin-6-yl)-4-oxo-1,4-dihydro-quinoline-3-carboxylic acid]	64 (≈ 95.8 µM)	34.0	< 5	30.2	64 (≈ 95.8 µM)	> 512	81.5 ± 4.2	128 (≈ 192 µM)	512 (≈ 767 µM)	> 32	6.5 ± 1.2	12.5	64 (≈ 95.8 µM)	64 (≈ 95.8 µM)	512 (≈ 767 µM)	64 (≈ 95.8 µM)	512 (≈ 767 µM)	256 (≈ 383 µM)	64 (≈ 95.8 µM)	128 (≈ 192 µM)	MIC [3, 26]: 512 µg/mL (≈ 767 µM); IC50 [6]: 2.7 ± 0.7 µM; MIC ([8]; ATCC12228, 18 h of treatment): 64 µg/mL (≈ 95.8 µM); MIC [11]: > 512 µg/mL; MIC ([12]; ATCC27853, 18 h): > 512 µg/mL
COc1c(N2C[C@@H]3CCCN[C@@H]3C2)c(F)cc2c(=O)c(C(=O)O)cn(C3CC3)c12 [MXF, moxifloxacin, reference compound]	0.06 (≈ 0.149 µM)	–	58.4 ± 3.1	–	< 0.03	–	121 ± 6.8	< 0.03	0.1 (≈ 0.249 µM)	–	54.5 ± 3.8	–	0.1 (≈ 0.249 µM)	0.06 (≈ 0.149 µM)	4 (≈ 9.96 µM)	0.06 (≈ 0.149 µM)	0.1 (≈ 0.249 µM)	2 (≈ 4.98 µM)	0.06 (≈ 0.149 µM)	0.1 (≈ 0.249 µM)	MIC [3, 26]: 0.1 µg/mL (≈ 0.249 µM); IC50 [5]: 46.4 ± 3.2 µM; MIC ([8]; ATCC12228, 18 h of treatment): 0.06 µg/mL (≈ 0.149 µM); MIC ([9]; 2 weeks of treatment): 0.125 µg/mL (≈ 0.311 µM); MIC ([11]; 2 weeks of treatment): 0.25 µg/mL (≈ 0.623 µM); MIC ([12]; ATCC27853, 18 h of treatment): > 512 µg/mL
